Experimental data as given in patent US11891386B2, “Indole compounds and their use” (ARIAGEN, INC., priority 2017, dated 2024).

Key:
[1] = Separate PK study in mice; format: in vivo; settings: data not shown
[2] = tested on: EMT-6 syngeneic mouse tumor model (breast cancer); experiment: Anti-tumor activity, EMT-6 syngeneic mouse tumor model; format: in vivo; settings: EMT6, 648 h, Study 2, EMT-6, 160 mpk, D27, read-out: TGI (tumor growth inhibition)

Structure (SMILES)	PK improvement over ARI-001 and ARI-002, in words [1]	inhibition in vivo at 160 mg/kg [2] [%]
Cc1nc(-c2csc(C(=O)c3c[nH]c4ccccc34)n2)no1 [ARI-030, (1H-indol-3-yl)(4-(5-methyl-1,2,4-oxadiazol-3-yl)thiazol-2-yl)methanone]	confirms the improvement	–
Cc1noc(-c2csc(C(=O)c3c[nH]c4ccccc34)n2)n1 [ARI-031, (1H-indol-3-yl)(4-(3-methyl-1,2,4-oxadiazol-5-yl)thiazol-2-yl)methanone]	confirms the improvement	–
COC(=O)c1csc(C(=O)c2c[nH]c3ccccc23)n1 [ARI-001, ITE]	–	75.1
